The subject of data set [1] is Green Peach Aphid (Myzus Persicae). Put plainly: Insecticidal test for green peach aphid in foliar spray assay (col. MYZUPE). The conditions noted are these: green peach aphid; for pest or weed control at 200 ppm: Myzus persicae, 72 h, read-out: MYZUPE 200 ppm (Corrected % Control, rating). It is filed as in vivo. The method in brief: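 Corrected % control derives from microscope counts of live aphids per plant, treated against diluent-only checks, 3 days after foliar spraying at ~25 °C and 40% RH. Test solution was 200 ppm in 0.025% aqueous Tween 20, applied to both leaf sides of infested cabbage seedlings, four pots each.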

Data set [2] has as its system Sweetpotato Whitefly-Crawler (Bemisia Tabaci). Nature of the data set: Insecticidal test for sweetpotato whitefly-crawler in foliar spray assay (col. BEMITA). The data set is classed as in vivo. As to conditions: sweetpotato whitefly-crawler; for pest or weed control at 200 ppm: Bemisia tabaci, read-out: BEMITA 200 ppm (Corrected % Control, rating). The method in brief: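 Percent control, Abbott-corrected against diluent-sprayed plants, from microscope counts of live nymphs 8-9 days after treatment. Test solution at 200 ppm in 0.025% aqueous Tween 20 applied to both leaf sides of egg-infested cotton after a 5-6 day hatch period (82° F, 50% RH).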

In data set [3] the test system is Cotton Aphid (Aphis Gossypii). Put plainly: Insecticidal test for cotton aphid in foliar spray assay (col. APHIGO). The data set is classed as in vivo. As to conditions: for pest or weed control at 200 ppm: Aphis gossypii, 72 h, read-out: APHIGO 200 ppm (Corrected % Control, rating). The protocol: The compounds were tested against cotton aphid, green peach aphid, and sweet potato whitefly using procedures described in the following examples and reported in Table 2.
In each case of Table 2, the rating scale is as follows at 200 ppm.
Insecticidal Test for Cotton Aphid (Aphis Gossypii) in Foliar Spray Assay
Squash or cotton seedlings with fully expanded cotyledon leaves were trimmed to one cotyledon per plant and infested with cotton aphid (wingless adult and nymph) one day prior to chemical application. Each plant was examined before chemical application to ensure uniform infestation (ca. 30-70 aphids per plant). Compounds (2 mg) were dissolved in 2 mL of acetone/methanol (1:1) solvent, forming stock solutions of 1000 ppm. The stock solutions were diluted 5× with 0.025% Tween 20 in H2O to obtain a solution at 200 ppm. A hand-held Devilbiss aspirator type sprayer was used to apply the spray solutions until runoff to both sides of the squash cotyledon leaves. Four plants (4 replications) were used for each concentration of each compound. Reference plants (solvent check) were sprayed with the diluent only. Treated plants were held in a holding room for three days at approximately 25° C. and 40% RH before the number of live aphids on each plant was recorded. Insecticidal activity was measured by Corrected % Control using Abbott's correction formula and presented in Table 2 (see col. “APHIGO”): Corrected % Control=100*(X−Y)/X • where X=No. of live aphids on solvent check plants • Y=No. of live aphids on treated plants

Molecules are shown by their SMILES.

With `CSCCC(=O)N(C)c1cnc(-c2cccnc2)s1` [Compound 19, N-methyl-3-methylsulfanyl-N-(2-pyridin-3-yl-thiazol-5-yl)-propionamide], the figures for the pest or weed control at 200 ppm in data set [1], in data set [2] and in data set [3] were 80 to 100%, < 80% and < 80%, respectively.

As to `CN(C(=O)OC(C)(C)C)c1sc(-c2cccnc2)nc1Br` [Compound 242, (4-bromo-2-pyridin-3-yl-thiazol-5-yl)-methyl-carbamic acid tert-butyl ester], the melting point lay within 88 to 91 °C. For the same compound, the pest or weed control at 200 ppm in data set [1] lay within 80 to 100%. The pest or weed control at 200 ppm in data set [2] lay in the range of 80 to 100%. Also, the pest or weed control at 200 ppm in data set [3] was < 80%.

Take `CCN(C(=O)C(C)(C)CS(C)(=O)=O)c1sc(-c2cccnc2)nc1C` [Compound 250]: the pest or weed control at 200 ppm in data set [1] was 80 to 100%; in data set [2] it was < 80%; in data set [3], < 80%.

For the compound `CCN(C(=O)OC(C)(C)C)c1cnc(-c2cncc(F)c2)s1` [Compound 245], the melting point is 89 to 92 °C. Further, in data set [1], the pest or weed control at 200 ppm was in the range of 80 to 100%. Further, in data set [2], the pest or weed control at 200 ppm lay within 80 to 100%. In addition, the pest or weed control at 200 ppm in data set [3] was in the range of 80 to 100%.

Consider `CN(C(=O)CC[S+](C)[O-])c1sc(-c2cncc(F)c2)nc1Cl` (stereo not drawn) [Compound 272], for which the melting point lay within 123 to 126 °C. Moreover, the pest or weed control at 200 ppm in data set [1] lay within 80 to 100%. The pest or weed control at 200 ppm in data set [2] was 80 to 100%. For the same compound, the pest or weed control at 200 ppm in data set [3] was 80 to 100%.

For `CCN(C(=O)C(C)CSC)c1sc(-c2cncc(F)c2)nc1C` (stereo not drawn) [Compound 240], the pest or weed control at 200 ppm in data set [1], in data set [2] and in data set [3] was 80 to 100% throughout.

In the case of `CCN(C(=O)C(C)CSC)c1sc(-c2cccnc2)nc1C` (stereo not drawn) [Compound 210], the pest or weed control at 200 ppm in data set [1], in data set [2] and in data set [3] was 80 to 100% each time.

`CCN(C(=O)C(C)(C)CSC)c1sc(-c2cncc(F)c2)nc1C` [Compound 255]: the pest or weed control at 200 ppm in data set [1], in data set [2] and in data set [3] was 80 to 100% each time.

As to `CSCC(C)C(=O)N(C)c1sc(-c2cncc(F)c2)nc1Cl` (stereo not drawn) [Compound 262], the pest or weed control at 200 ppm in data set [1], in data set [2] and in data set [3] was 80 to 100% throughout.

`CSC(C)CC(=O)Nc1sc(-c2cncc(F)c2)nc1C` (stereo not drawn) [Compound 218] showed a melting point of 130 to 133 °C. In addition, the pest or weed control at 200 ppm in data set [1] lay in the range of 80 to 100%. Besides, the pest or weed control at 200 ppm in data set [2] is 80 to 100%. In data set [3], the pest or weed control at 200 ppm fell in the range of 80 to 100%.

`CSCC(C)C(=O)N(C)c1sc(-c2cccnc2)nc1Cl` (stereo not drawn) [Compound 227, N-(4-chloro-2-pyridin-3-yl-thiazol-5-yl)-2,N-dimethyl-3-methylsulfanyl-propionamide]: the pest or weed control at 200 ppm in data set [1], in data set [2] and in data set [3] was 80 to 100% throughout.

`COc1ccc(CN(C(=O)OC(C)(C)C)c2cnc(-c3cccnc3)s2)cc1` [Compound 244] showed a melting point of 124 to 126 °C. Besides, in data set [1], the pest or weed control at 200 ppm was < 80%. For the same compound, in data set [2], the pest or weed control at 200 ppm is < 80%. Moreover, in data set [3], the pest or weed control at 200 ppm is < 80%.

The compound `C=CC[S+]([O-])CC(C)C(=O)Nc1sc(-c2cncc(F)c2)nc1C` (stereo not drawn) [Compound 229] yielded a melting point of 170 to 174 °C. In addition, in data set [1], the pest or weed control at 200 ppm is 80 to 100%. The pest or weed control at 200 ppm in data set [2] was < 80%. Moreover, in data set [3], the pest or weed control at 200 ppm was in the range of 80 to 100%.

Take `CCN(C(=O)C(C)C[S+](C)[O-])c1sc(-c2cccnc2)nc1C` (stereo not drawn) [Compound 234]: the pest or weed control at 200 ppm in data set [1], in data set [2] and in data set [3] was 80 to 100% in each case.

`CCN(C(=O)C(C)C)c1sc(-c2cncc(F)c2)nc1C` [Compound 253]: the pest or weed control at 200 ppm in data set [1], in data set [2] and in data set [3] was 80 to 100% throughout.

For the compound `CCN(C(=O)CCSC)c1sc(-c2cncc(F)c2)nc1Cl` [Compound 274], the pest or weed control at 200 ppm in data set [1], in data set [2] and in data set [3] was 80 to 100% throughout.

Consider `CCN(C(=O)C(C)CSC)c1sc(-c2cncc(F)c2)nc1Cl` (stereo not drawn) [Compound 279], for which the pest or weed control at 200 ppm in data set [1], in data set [2] and in data set [3] was 80 to 100% each time.

For `CCN(C(=O)C(C)C)c1sc(-c2cccnc2)nc1C` [Compound 233], the pest or weed control at 200 ppm in data set [1], in data set [2] and in data set [3] was 80 to 100% in each case.

With `CC(C[S+](C)[O-])C(=O)N(C)c1sc(-c2cncc(F)c2)nc1Cl` (stereo not drawn) [Compound 270], the pest or weed control at 200 ppm is 80 to 100% in data set [1], 80 to 100% in data set [2] and < 80% in data set [3].

In the case of `CN(C(=O)OC(C)(C)C)c1cnc(-c2cncc(F)c2)s1` [Compound 243], the melting point was in the range of 148 to 151 °C. For the same compound, the pest or weed control at 200 ppm in data set [1] is 80 to 100%. In data set [2], the pest or weed control at 200 ppm was 80 to 100%. In data set [3], the pest or weed control at 200 ppm is 80 to 100%.

`CN(C(=O)OC(C)(C)C)c1sc(-c2cccnc2)nc1Cl` [Compound 228, (4-chloro-2-pyridin-3-yl-thiazol-5-yl)-methyl-carbamic acid tert-butyl ester] had a melting point of 119 to 122 °C. Also, the pest or weed control at 200 ppm in data set [1] lay within 80 to 100%. In data set [2], the pest or weed control at 200 ppm was in the range of 80 to 100%. The pest or weed control at 200 ppm in data set [3] is 80 to 100%.

With `C=CCSCC(C)C(=O)Nc1sc(-c2cncc(F)c2)nc1C` (stereo not drawn) [Compound 226], the melting point was in the range of 76 to 79 °C. Besides, the pest or weed control at 200 ppm in data set [1] lay within 80 to 100%. Also, the pest or weed control at 200 ppm in data set [2] was 80 to 100%. In addition, the pest or weed control at 200 ppm in data set [3] is 80 to 100%.

`CC(C[S+](C)[O-])C(=O)N(C)c1sc(-c2cccnc2)nc1Cl` (stereo not drawn) [Compound 230]: the pest or weed control at 200 ppm in data set [1], in data set [2] and in data set [3] was 80 to 100% each time.

With `CCN(C(=O)C(C)CS(C)(=O)=O)c1sc(-c2cccnc2)nc1C` (stereo not drawn) [Compound 235], the “MYZUPE 200 ppm (Corrected % Control, rating)” value in data set [1] is recorded as “A (80-100)”. Moreover, in data set [2], the “BEMITA 200 ppm (Corrected % Control, rating)” value was “A (80-100)”. The “APHIGO 200 ppm (Corrected % Control, rating)” value in data set [3] was “A (80-100)”.

Source of the values: patent publication US8853246B2 (Dow AgroSciences LLC, priority 2009, dated 2014).
